Where two headings read alike, the source gives them in different places.
Experiments:
human TrkA = human TrkA (Homo sapiens (Human), UniProt P04629); experiment: Measurement of TrkA kinase-inhibiting activity using human TrkA-expressing cells; type: cell-based; conditions: CHO-K1 cells expressing human TrkA and NFAT-bla; NGF 50 ng/ml; TR-FRET reporter
Protocol: TrkA kinase-inhibiting activity in cell systems was measured using CHO-K1 cells exressing human TrkA and NFAT-bla (CellSenser™ TrkA-NFAT-bla CHO-K1 cells, Invitrogen).
On the day before the assay, CellSenser™ TrkA-NFAT-bla CHO-K1 cells were suspended in an assay medium (Opti-MEM1 Reduced Serum Medium (Invitrogen) containing 0.5% dialysed fetal bovine serum (Invitrogen), 0.1 mM nonessential amino acids (Invitrogen), 1 mM sodium pyruvate (Invitrogen) and antibiotics (100 U/mL penicillin and 100 µg/mL streptomycin (Invitrogen))) and plated at a density of 2.4×10^4 cells/40 μL/well in a 96-well clear bottom plate (Corning, Catalogue No.: 3882). In some wells were added only the assay medium at 40 μL/well (Cell-free). On the day of the assay, 10 mM of the present compound (DMSO solution) was distributed in a 96-well plate (Costar, Catalogue No.: 3363) and serially diluted with DMSO with the geometrical ratio of 3. The serial dilutions were diluted with the assay medium to 100-fold to prepare a solution of the present compound with a 10-fold concentration (DMSO concentration: 1%). To the plate where cells were plated was added the present compound at 5 µL/well and the plate was incubated in a CO2 incubator with 5% CO2, 95% Air at 37° C. for 30 minutes. For a control and a blank, the assay medium containing 1% DMSO was added at 5 µL/well in place of the solution of the present compound. Subsequently the assay medium containing NGF (Mouse 2.5s, Natural, Invitrogen) was added to the plate at 5 µL/well (final concentration of NGF: 50 ng/ml) and the plate was incubated in a CO2 incubator with 5% CO2, 95% Air at 37° C. for 5 hours. For the blank group, the assay medium was added in place of NGF at 5 µL/well. A reporter assay detection reagent ([…]) was added to the plate which was then incubated in the dark at room temperature for 120 minutes. The reporter assay detection reagent was prepared from LiveBLAzer™-FRET B/G Loading Kit (Invitrogen). On the Analyst GT (Molecular Devices Japan, K.K.) the wells were irradiated with excitation light at 405 nm and the fluorescence intensities at 460 nm and 530 nm were measured. The time resolved fluorescence resonance energy transfer (TR-FRET) ratio of each well was calculated according to the following Equation 1: TR-FRET ratio=(A460x−A460F)/(A530x−A530F) [Eq. 1]
A460x: the fluorescence intensity at 460 nm of the present compound, control or blank;
A460F: the fluorescence intensity at 460 nm of the Cell-free;
A530x: the fluorescence intensity at 530 nm of the present compound, control or blank; and
A530x: the fluorescence intensity at 530 nm of the Cell-free.
The TR-FRET inhibition rate (%) of the present compound was calculated according to the following Equation 2: Inhibition rate (%)={1−(AX−AB)/(AC−AB)}×100 [Eq. 2]
wherein AX: the TR-FRET ratio when the present compound is added;
AB: the TR-FRET of the blank; and
AC: the TR-FRET of the control.
The IC50 value by the present compound was calculated from the inhibition curve based on the inhibition rate of the present compound at respective concentrations.

[1] = tested on: NGF-induced vascular hyper permeability; experiment: Inhibition of rat NGF-induced vascular hyper permeability; type: in vivo; conditions: po, 1 mg/kg orally, read-out: Inhibition rate of vascular hyper permeability (%) (time after administration (h))
Protocol: TrkA-inhibiting activity of the present compound was evaluted in vivo. The present compound dissolved in a medium was orally administered (adminstered volume: 5 mL/kg) to male CD(SD)IGS rats (7- to 9-week old, Charles River laboratories Japan, Inc.) shaved on the back. A medium was orally administered (adminstered volume: 5 mL/kg) to the control and normal groups. After 6, 12 or 14 hours of administration, 3 μg/mL of a NGF (Mouse 2.5s, Natural, Invitrogen) solution prepared in 0.1% BSA (Sigma-Aldrich)-containing saline was intracutaneously administered (dose; 50 μL/site) at 3 sites on the back of animals under halothane anesthesia. For the normal group, 0.1% BSA-containing saline was intracutaneously administered (dose; […]) at 3 sites on the back. Immediately after intracutaneous administration, 1% Evans Blue (Tokyo Chemical Industriy Co., Ltd.) was administered intravenously from tail (adminstered volume: 3 mL/kg). After 10 minutes of administration, the animals were sacrificed by bleeding due to incision of the abdominal aorta. The sites of intracutaneous administration on the back (3 sites) were excised and the skin samples were respectively transferred to the wells in a 48-well plate (Asahi Glass Co., Ltd.). Formamide (0.8 mL/well) was added to the plate and the plate was sealed and incubated overnight at 60° C. The formamide extraction solution (200 μL) was transferred to a 96-well plate and the absorbance (wavelength: 620 nm) of Evans Blue extracted in formamide was measured on an absorbance microplate reader (SpectraMAX 190, Molecular Devices Japan, K.K.). Standard samples of Evans Blue dissolved in formamide (0, 0.78, 1.56, 3.13, 6.25, 12.5, 25 and 50 µg/mL) were measured at the same time for the absorance (wavelength: 620 nm) to generate a calibration curve. Based on the calibration curve and the absorbances of samples, the concentrations of Evans Blue in the sample was calculated. The concentrations of Evans Blue for three skin samples collected from one aminal were averaged to obtain the vale for the animal. The rate of inhibition for rat NGF-induced vascular hyper permeability of the present compound was calculated according to the following Equation: Inhibition rate (%)={1−(AX−AN)/(AC−AN)}×100 [Eq. 3]
wherein AX: the concentration of Evans Blue of the test compound (an average value of 3 samples from one animal);
AN: the concentration of Evans Blue of the normal group (an average value of 3 samples from one animal);
AC: the concentration of Evans Blue of the control group (an average value of 3 samples from one animal).

human TrkA, sequence (P04629 33-796): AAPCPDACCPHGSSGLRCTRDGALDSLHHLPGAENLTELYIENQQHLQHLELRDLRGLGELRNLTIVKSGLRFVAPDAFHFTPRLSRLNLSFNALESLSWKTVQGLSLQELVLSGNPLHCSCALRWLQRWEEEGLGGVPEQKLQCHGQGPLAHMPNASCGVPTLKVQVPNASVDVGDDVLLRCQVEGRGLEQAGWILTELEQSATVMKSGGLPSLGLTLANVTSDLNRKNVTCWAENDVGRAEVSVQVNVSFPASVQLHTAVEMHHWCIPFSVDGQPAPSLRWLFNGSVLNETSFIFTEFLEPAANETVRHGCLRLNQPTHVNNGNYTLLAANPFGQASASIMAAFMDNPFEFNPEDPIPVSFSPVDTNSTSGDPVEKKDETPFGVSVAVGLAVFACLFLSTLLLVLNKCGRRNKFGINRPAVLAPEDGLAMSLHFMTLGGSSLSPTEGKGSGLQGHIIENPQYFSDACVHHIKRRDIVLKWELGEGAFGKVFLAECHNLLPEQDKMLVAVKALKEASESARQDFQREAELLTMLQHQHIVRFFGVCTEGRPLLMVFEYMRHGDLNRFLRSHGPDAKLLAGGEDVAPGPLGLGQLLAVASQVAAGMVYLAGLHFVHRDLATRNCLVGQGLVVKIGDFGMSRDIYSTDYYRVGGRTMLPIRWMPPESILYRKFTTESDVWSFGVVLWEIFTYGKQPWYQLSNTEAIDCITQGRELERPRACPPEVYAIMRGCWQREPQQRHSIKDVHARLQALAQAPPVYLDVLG

Compound: Nc1ncc(Cl)cc1-c1ccc(Oc2ncc(NC(=O)Nc3cc(C(F)(F)F)ccc3-n3cccn3)cn2)cc1 [Example 7, 1-(2-(1H-pyrazol-1-yl)-5-(trifluoromethyl)phenyl)-3-(2-(4-(2-amino-5-chloropyridin-3-yl)phenoxy)pyrimidin-5-yl)urea]
- IC50 (human TrkA): 0.001 µM
- inhibition in vivo at 1 mg/kg ([1]; 14 h after administration): 97%

Compound: Cc1cn(-c2ccc(C(F)(F)F)cc2NC(=O)Nc2cnc(Oc3ccc(-c4cc(Cl)cnc4N)cc3)nc2)nn1 [Example 8-1, 1-(2-(4-(2-amino-5-chloropyridin-3-yl)phenoxy)pyrimidin-5-yl)-3-(2-(4-methyl-1H-1,2,3-triazol-1-yl)-5-(trifluoromethyl)phenyl)urea]
- IC50 (human TrkA): 0.001 µM
- inhibition in vivo at 1 mg/kg ([1]; 14 h after administration): 94%

Compound: Nc1ncc(Cl)cc1-c1ccc(Oc2ncc(NC(=O)Nc3cc(C(F)(F)F)ccc3-n3ccc(C(F)(F)F)n3)cn2)cc1 [Example 8-2, 1-(2-(4-(2-amino-5-chloropyridin-3-yl)phenoxy)pyrimidin-5-yl)-3-(5-(trifluoromethyl)-2-(3-(trifluoromethyl)-1H-pyrazol-1-yl)phenyl)urea]
- IC50 (human TrkA): 0.002 µM
- inhibition in vivo at 1 mg/kg ([1]; 14 h after administration): 100%

Compound: Nc1ncc(Cl)cc1-c1ccc(Oc2ncc(NC(=O)Nc3cc(C(F)(F)F)ccc3Cl)cn2)cc1 [Example 8-4, 1-(2-(4-(2-amino-5-chloropyridin-3-yl)phenoxy)pyrimidin-5-yl)-3-(2-chloro-5-(trifluoromethyl)phenyl)urea]
- IC50 (human TrkA): 0.001 µM
- inhibition in vivo at 1 mg/kg ([1]; 14 h after administration): 96%

Compound: Nc1ncc(Cl)cc1-c1ccc(Oc2ccc(NC(=O)Nc3cc(C(F)(F)F)ccc3-n3cccn3)cn2)cc1 [Example 9-1]
- IC50 (human TrkA): 0.003 µM
- inhibition in vivo at 1 mg/kg ([1]; 14 h after administration): 86%

Compound: Nc1ncc(Cl)cc1-c1ccc(Oc2ccc(NC(=O)Nc3cc(C(F)(F)F)ccc3-n3ccnn3)cn2)cc1 [Example 9-2]
- IC50 (human TrkA): 0.001 µM
- inhibition in vivo at 1 mg/kg ([1]; 14 h after administration): 100%

Compound: Nc1ncc(Cl)cc1-c1ccc(Oc2ccc(NC(=O)Nc3cc(C(F)(F)F)ccc3-c3cccnc3)cn2)cc1 [Example 11, 1-(6-(4-(2-amino-5-chloropyridin-3-yl)phenoxy)pyridin-3-yl)-3-(2-(pyridin-3-yl)-5-(trifluoromethyl)phenyl)urea]
- IC50 (human TrkA): 0.001 µM
- inhibition in vivo at 1 mg/kg ([1]; 14 h after administration): 100%

Compound: Cn1nccc1-c1ccc(C(F)(F)F)cc1NC(=O)Nc1cnc(Oc2ccc(-c3cc(Cl)cnc3N)cc2)nc1 [Example 13-1, 1-(2-(4-(2-amino-5-chloropyridin-3-yl)phenoxy)pyrimidin-5-yl)-3-(2-(1-methyl-1H-pyrazol-5-yl)-5-(trifluoromethyl)phenyl)urea]
- IC50 (human TrkA): 0.002 µM
- inhibition in vivo at 1 mg/kg ([1]; 14 h after administration): 100%

Compound: Nc1ncc(F)cc1-c1ccc(Oc2ncc(NC(=O)Nc3cc(C(F)(F)F)ccc3-n3ccnn3)cn2)cc1 [Example 14-5, 1-(2-(1H-1,2,3-triazol-1-yl)-5-(trifluoromethyl)phenyl)-3-(2-(4-(2-amino-5-fluoropyridin-3-yl)phenoxy)pyrimidin-5-yl)urea]
- IC50 (human TrkA): 0.001 µM
- inhibition in vivo at 1 mg/kg ([1]; 14 h after administration): 93%

Compound: Nc1ncc(F)cc1-c1ccc(Oc2ncc(NC(=O)Nc3cc(C(F)(F)F)ccc3-c3cccnc3)cn2)cc1 [Example 14-6, 1-(2-(4-(2-amino-5-fluoropyridin-3-yl)phenoxy)pyrimidin-5-yl)-3-(2-(pyridin-3-yl)-5-(trifluoromethyl)phenyl)urea]
- IC50 (human TrkA): 0.001 µM
- inhibition in vivo at 1 mg/kg ([1]; 12 h after administration): 78%

Compound: Nc1ncc(Cl)cc1-c1ccc(Oc2ncc(NC(=O)Nc3ccc(C(F)(F)F)cc3-n3cccn3)cn2)cc1 [Example 15-4, 1-(2-(1H-pyrazol-1-yl)-4-(trifluoromethyl)phenyl)-3-(2-(4-(2-amino-5-chloropyridin-3-yl)phenoxy)pyrimidin-5-yl)urea]
- IC50 (human TrkA): 0.001 µM
- inhibition in vivo at 1 mg/kg ([1]; 14 h after administration): 100%

Compound: Nc1ncc(Cl)cc1-c1ccc(Oc2ncc(NC(=O)Nc3ccc(C(F)(F)F)cc3F)cn2)cc1 [Example 15-5, 1-(2-(4-(2-amino-5-chloropyridin-3-yl)phenoxy)pyrimidin-5-yl)-3-(2-fluoro-4-(trifluoromethyl)phenyl)urea]
- IC50 (human TrkA): 0.003 µM
- inhibition in vivo at 1 mg/kg ([1]; 14 h after administration): 92%

Compound: Nc1ncc(Cl)cc1-c1ccc(Oc2ncc(NC(=O)Nc3ccc(C(F)(F)F)cc3Cl)cn2)cc1 [Example 15-6, 1-(2-(4-(2-amino-5-chloropyridin-3-yl)phenoxy)pyrimidin-5-yl)-3-(2-chloro-4-(trifluoromethyl)phenyl)urea]
- IC50 (human TrkA): 0.002 µM
- inhibition in vivo at 1 mg/kg ([1]; 14 h after administration): 95%

Compound: O=C(Nc1cnc(Oc2ccc(-c3cnc4ccccn34)cc2)nc1)Nc1cc(C(F)(F)F)ccc1-n1cccn1 [Example 23-3, 1-(2-(1H-pyrazol-1-yl)-5-(trifluoromethyl)phenyl)-3-(2-(4-(imidazo[1,2-a]pyridin-3-yl)phenoxy)pyrimidin-5-yl)urea]
- IC50 (human TrkA): 0.001 µM

Compound: O=C(Nc1cnc(Oc2ccc(-c3cnc4[nH]ccc4c3)cc2)nc1)Nc1cc(C(F)(F)F)ccc1-c1cccnc1 [Example 23-7, 1-(2-(4-(1H-pyrrolo[2,3-b]pyridin-5-yl)phenoxy)pyrimidin-5-yl)-3-(2-(pyridin-3-yl)-5-(trifluoromethyl)phenyl)urea]
- IC50 (human TrkA): 0.002 µM

Compound: O=C(Nc1cnc(Oc2ccc(-c3cnc4cnccn34)cc2)nc1)Nc1cc(C(F)(F)F)ccc1-c1cccnc1 [Example 23-10, 1-(2-(4-(imidazo[1,2-a]pyrazin-3-yl)phenoxy)pyrimidin-5-yl)-3-(2-(pyridin-3-yl)-5-(trifluoromethyl)phenyl)urea]
- IC50 (human TrkA): 0.001 µM

Compound: O=C(Nc1cnc(Oc2ccc(-c3cnn4ccccc34)cc2)nc1)Nc1cc(C(F)(F)F)ccc1-c1cccnc1 [Example 23-11, 1-(2-(4-(pyrazolo[1,5-a]pyridin-3-yl)phenoxy)pyrimidin-5-yl)-3-(2-(pyridin-3-yl)-5-(trifluoromethyl)phenyl)urea]
- IC50 (human TrkA): 0.001 µM

Compound: O=C(Nc1cnc(Oc2ccc(-c3cnc4[nH]ncc4c3)cc2)nc1)Nc1cc(C(F)(F)F)ccc1-c1cccnc1 [Example 23-12, 1-(2-(4-(1H-pyrazolo[3,4-b]pyridin-5-yl)phenoxy)pyrimidin-5-yl)-3-(2-(pyridin-3-yl)-5-(trifluoromethyl)phenyl)urea]
- IC50 (human TrkA): 0.001 µM

Source: US9463192B2, “Trk-inhibiting compound” (ONO PHARMACEUTICAL CO., LTD., priority 2013, dated 2016)
